Experimental data from ChEMBL document CHEMBL1201862, “PubChem BioAssay data set” (2004).
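Five compound concentrations were applied to cells in 96-well plates for 48 hours; endpoints were derived by simple linear interpolation of the resulting dose-response curve. The concentration for 50% growth inhibition is given as GI50.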 Active and inactive are the calls of the source. Rule as the data show it: active = GI50 up to about 1.1 µM and inactive = higher.

Columns and labels:
Experiment in all cases: growth of human tumour cells (NCI), 48 h
[1] = system: OVCAR-4
[2] = system: SF-295
[3] = system: MOLT-4
[4] = system: NCI-H522
[5] = system: CCRF-CEM
[6] = system: HCT-15
[7] = system: EKVX
[8] = system: KM12
[9] = system: UO-31
[10] = system: SN12C
[11] = system: HCT-116
[12] = system: CAKI-1
[13] = system: Malme-3M
[14] = system: NCI-H460
[15] = system: A498

Row | SMILES | GI50 [1] | GI50 [2] | GI50 [3] | GI50 [4] | GI50 [5] | GI50 [6] | GI50 [7] | GI50 [8] | GI50 [9] | GI50 [10] | GI50 [11] | GI50 [12] | GI50 [13] | GI50 [14] | GI50 [15]
1 | c1ccc(-c2csc3ncn4cnnc4c23)cc1 | 75.5 µM (inactive) | > 100 µM (inactive) | 44.1 µM (inactive) | 51.1 µM (inactive) | 85.9 µM (inactive) | 95.3 µM | > 100 µM (inactive) | > 100 µM (inactive) | 48.3 µM (inactive) | 81.7 µM (inactive) | 91.4 µM (inactive) |  |  |  | 
2 | CCCCCCCCCC(=O)CC(=O)c1c(O)cccc1O | 49.7 µM (inactive) | 34.1 µM (inactive) | 31 µM (inactive) | 27.8 µM (inactive) | 27.4 µM (inactive) |  | 29.2 µM (inactive) | 35.1 µM (inactive) | 35.1 µM (inactive) | 24.4 µM (inactive) | 33.4 µM (inactive) | 33.2 µM (inactive) | 35.2 µM (inactive) | 34.5 µM (inactive) | 
3 | COc1nc2c(nc(N)n2C2OC(CO)C(O)C(O)C2O)c(=O)n1C (centres undefined) | > 100 µM (inactive) | > 100 µM (inactive) |  | > 100 µM (inactive) | > 100 µM (inactive) |  | > 100 µM (inactive) | > 100 µM (inactive) | > 100 µM (inactive) | > 100 µM (inactive) | > 100 µM (inactive) | > 100 µM (inactive) | > 100 µM (inactive) | > 100 µM (inactive) | > 100 µM (inactive)
4 | O=C(/C=C/c1ccc(OCC(=O)N2CCN(c3ccccc3)CC2)cc1)c1ccccc1 | 14.3 µM (inactive) | 23.3 µM (inactive) | 3.05 µM (inactive) | 3.6 µM (inactive) | 2.84 µM (inactive) | 7.5 µM | 34.7 µM (inactive) | 4.52 µM (inactive) | 15.2 µM (inactive) | 19.7 µM (inactive) | 11.7 µM (inactive) | 93.3 µM (inactive) | 15 µM (inactive) | > 46.1 µM (inactive) | > 56.8 µM (inactive)
5 | Cc1cccc(NC(=O)CSc2nnc(-c3ccc(/N=C\c4ccc(Cl)cc4)cc3)o2)c1 | 69.2 µM (inactive) | > 100 µM (inactive) | > 100 µM (inactive) | 38.2 µM (inactive) | > 100 µM (inactive) | > 100 µM | > 100 µM (inactive) | > 100 µM (inactive) | > 100 µM (inactive) | > 100 µM (inactive) | > 100 µM (inactive) |  | > 100 µM (inactive) | > 100 µM (inactive) | 
6 | CNC(=S)/N=C(\N)N(C)C | > 10 µM (inactive) | > 100 µM (inactive) | > 100 µM (inactive) | > 100 µM (inactive) |  | > 100 µM | > 100 µM (inactive) | > 100 µM (inactive) | > 100 µM (inactive) | > 100 µM (inactive) | > 100 µM (inactive) | > 100 µM (inactive) | > 100 µM (inactive) | > 100 µM (inactive) | > 100 µM (inactive)
7 | CCCCCCCCCCCCOC(=S)NCCCC | 25.8 µM (inactive) | 36.9 µM (inactive) | 15.9 µM (inactive) | 14.5 µM (inactive) | 27.5 µM (inactive) | 19.5 µM | 18.3 µM (inactive) | 20 µM (inactive) | 3.37 µM (inactive) | 19.9 µM (inactive) | 18.6 µM (inactive) |  | 26.6 µM (inactive) | 24.4 µM (inactive) | 20 µM (inactive)
8 | CC(C)C(=O)N1Cc2cc(Cl)cc(Cl)c2OC(=O)c2ccccc21 | 28.8 µM (inactive) | 26.7 µM (inactive) | 22.6 µM (inactive) | 21 µM (inactive) | 27 µM (inactive) | 27.5 µM | 27.7 µM (inactive) | 32.8 µM (inactive) | 31.7 µM (inactive) | 32.7 µM (inactive) | 38 µM (inactive) | 22.8 µM (inactive) | 20.9 µM (inactive) | 33 µM (inactive) | 27.5 µM (inactive)
9 | CCOC(=O)[C@@]1(C)C=C2O[C@@H]3OC4(CCCCC4)O[C@@H]3C2=C2C(O)=CC=C(O)[C@]21C(=O)OC | > 68.1 µM (inactive) | > 68.1 µM (inactive) | 33.7 µM (inactive) | > 68.1 µM (inactive) | > 68.1 µM (inactive) | > 68.1 µM | > 68.1 µM (inactive) | > 68.1 µM (inactive) | > 68.1 µM (inactive) | > 68.1 µM (inactive) | > 68.1 µM (inactive) | 51.4 µM (inactive) | > 68.1 µM (inactive) | > 68.1 µM (inactive) | > 68.1 µM (inactive)
10 | CCOC(=O)NC(=O)c1cn(CCCCCCCCCCC(=O)NCCCN2CCN(CCCNC(=O)CCCCCCCCCCn3cc(C(=O)NC(=O)OCC)c(=O)[nH]c3=O)CC2)c(=O)[nH]c1=O |  | > 100 µM (inactive) | > 100 µM (inactive) | > 10 µM (inactive) | > 100 µM (inactive) | > 100 µM |  | > 100 µM (inactive) | > 100 µM (inactive) | > 100 µM (inactive) | > 100 µM (inactive) | > 10 µM (inactive) | > 100 µM (inactive) | > 100 µM (inactive) | > 100 µM (inactive)
11 | CC1=C(/C=C/C(C)=C/C2CC(N(C)C)=CC(=O)O2)C(C)(C)CCC1 (centres undefined) | 16 µM (inactive) | 13 µM (inactive) | 3.2 µM (inactive) | > 10 µM (inactive) | 3.46 µM (inactive) |  | 14.4 µM (inactive) | 15.6 µM (inactive) | 10.7 µM (inactive) | 15.5 µM (inactive) | 12.9 µM (inactive) | 22.2 µM (inactive) | 14.4 µM (inactive) | 17.7 µM (inactive) | 14.9 µM (inactive)
12 | Nc1nc(-c2ccc(Cl)c([N+](=O)[O-])c2)cs1 | > 100 µM (inactive) | 45.9 µM (inactive) | 97.3 µM (inactive) |  | > 100 µM (inactive) | > 100 µM | 94.8 µM (inactive) | 71 µM (inactive) | 78.9 µM (inactive) | > 100 µM (inactive) | 58.7 µM (inactive) | 80 µM (inactive) | > 100 µM (inactive) | > 100 µM (inactive) | 20 µM (inactive)
13 | CCOC(=O)C(C)c1cc(C2(C)OCCO2)c(C)o1 (centres undefined) | > 100 µM (inactive) | > 100 µM (inactive) | > 100 µM (inactive) |  | > 100 µM (inactive) | > 100 µM | > 100 µM (inactive) | > 100 µM (inactive) | > 100 µM (inactive) | > 100 µM (inactive) | > 100 µM (inactive) |  | > 100 µM (inactive) | > 100 µM (inactive) | 
14 | C/C(=N\NC(N)=S)c1ccc(/C(C)=N/NC(N)=S)cc1 |  | > 100 µM (inactive) | > 100 µM (inactive) | > 100 µM (inactive) | > 100 µM (inactive) | > 100 µM | > 100 µM (inactive) | > 100 µM (inactive) | > 100 µM (inactive) | > 100 µM (inactive) | > 100 µM (inactive) |  | > 100 µM (inactive) | > 100 µM (inactive) | > 100 µM (inactive)
15 | COC(=O)C(CCC1(C)OCCO1)=[N+]=[N-] | > 100 µM (inactive) | > 100 µM (inactive) | > 100 µM (inactive) | > 100 µM (inactive) | > 100 µM (inactive) | > 100 µM | > 100 µM (inactive) | > 100 µM (inactive) | > 100 µM (inactive) | > 100 µM (inactive) | > 100 µM (inactive) |  | > 100 µM (inactive) | > 100 µM (inactive) | > 100 µM (inactive)
16 | CCOC(=O)N(c1ccccc1)N(CC)C(=O)/C(C)=N/Nc1ccc([N+](=O)[O-])cc1 | 19.7 µM (inactive) | 16.6 µM (inactive) | 17.7 µM (inactive) | 15.3 µM (inactive) | 17.2 µM (inactive) | 16 µM | 18.6 µM (inactive) | 15.4 µM (inactive) | 14.8 µM (inactive) | 17.3 µM (inactive) | 14.1 µM (inactive) |  | 17.6 µM (inactive) |  | 14.3 µM (inactive)
17 | Nc1ccc(/N=N/c2ccc(-c3ccc(/N=N/c4c(S(=O)(=O)O)cc5cc(S(=O)(=O)O)c(/N=N/c6ccc([N+](=O)[O-])cc6)c(N)c5c4O)cc3)cc2)c2cc(S(=O)(=O)O)ccc12 | > 100 µM (inactive) | 84.5 µM (inactive) | > 100 µM (inactive) | > 100 µM (inactive) | > 100 µM (inactive) | > 100 µM | > 100 µM (inactive) | > 100 µM (inactive) | > 100 µM (inactive) | > 100 µM (inactive) | > 100 µM (inactive) | > 100 µM (inactive) | > 100 µM (inactive) | > 100 µM (inactive) | > 100 µM (inactive)
18 | c1cc(C2O[C@H]3CCCN3[C@@H]2c2ccncc2)ccn1 (some centres undefined) | > 100 µM (inactive) | > 100 µM (inactive) | > 100 µM (inactive) | > 100 µM (inactive) | > 100 µM (inactive) | > 100 µM | > 100 µM (inactive) | > 100 µM (inactive) | > 100 µM (inactive) | > 100 µM (inactive) | > 100 µM (inactive) | > 100 µM (inactive) | > 100 µM (inactive) | > 100 µM (inactive) | > 100 µM (inactive)
19 | COc1ccc(C(O)c2cc(OC)c(OC)c(OC)c2)cc1 (centres undefined) | 31.8 µM (inactive) | 6.44 µM (inactive) | 16.9 µM (inactive) | 11.6 µM (inactive) | 20 µM (inactive) | 8.77 µM | 43.9 µM (inactive) | 7.52 µM (inactive) | 30.6 µM (inactive) | 42.8 µM (inactive) | 24.2 µM (inactive) | 37.1 µM (inactive) | 23.7 µM (inactive) | 31.6 µM (inactive) | 25.9 µM (inactive)
20 | COc1cc([C@@H]2c3cc4c(c(O)c3C[C@H]3COC(=O)[C@@H]32)OCO4)cc(OC)c1O |  | < 0.02 µM (active) |  |  |  |  | 0.0351 µM (active) |  | < 0.02 µM (active) | 0.033 µM (active) | 0.0205 µM (active) | < 0.02 µM (active) | 0.0266 µM (active) |  | < 0.02 µM (active)
